One data set deals with Hela cell. As to the kind of experiment: Hela cell evaluation method (cytological test, rhIFN-γ stimulated). In kind it is cell-based. Conditions: Hela cells with 50 ng/mL rhIFN-γ, incubated 48 hours, OD at 480 nm. As to the method:
Hela Cell Evaluation Method
(§1) Test Sample: Compounds Prepared in the Corresponding Examples of the Present Invention
Helacell strain (Purchased from ATCC, Cat. No. CCL-2, 4965442)
Recombinant Human IFN-γ (rhIFN-γ, Purchased from Peprotech, Cat. No. 300-02)
Cell plating: Hela cell suspension was prepared from fresh MEM cell culture medium, added to a 96-well cell culture plate at 5000 cells/well, and cultured at 5% carbon dioxide at 37° C. overnight.
Preparation of compound: The compound was formulated into 2 mM in DMSO, and the compound was diluted 5-fold in DMSO to obtain a compound dilution mother solution (200×) of 6 to 9 concentration gradients, and a 10× dilution solution was prepared in proportion with cell culture medium or liquid.
Dosing incubation: After the cells were plated overnight, 10 μL of the corresponding compound dilution mother solution (10×) and 10 μL of 500 ng/mL rhIFN-γ were added to each well, and the final volume of each well was 100 μL. The negative control wells contained 100 μL of 0.5% DMSO cell culture medium and Hela cells. 50 ng/mL of rhIFN-γ were filled into negative control wells, which are used as positive control. Background control wells contained 100 μL of cell culture medium. Incubation was performed for 48 hours in a 37° C. incubator and cell morphology was observed under an inverted microscope.
Detection: 80 μL of the supernatant was added to a Corning 3894 plate, and 10 μL of 6.1 N trichloroacetic acid was added to each well. The plate was shaken for 2 minutes, placed in a 50° C. incubator to react for 30 minutes, centrifuged at 2500 rpm for 10 minutes. 70 μL of the supernatant was transferred to a Corning 3635 UV plate, added with 70 μL of the reaction solution and the mixture was shaken for 2 minutes to make the reaction mixture uniform. The OD value at 480 nm was measured using EnSpire (PE).

A further data set deals with T1, IDO1 (Homo sapiens, UniProt P14902).
T1 construct: purchased CP lot number: 20160706
As to the kind of experiment: IDO1 enzymology evaluation method. Conditions: IDO-1 enzyme, dynamic OD at 321 nm, IC50 fitted with GraphPad Prism. The class given is biochemical. How it is done:
IDO1 Enzymology Evaluation Method
as §1
Preparation of compound: The compound was formulated into 1 mM compound mother liquor in DMSO, and the compound was diluted 3-fold in DMSO to obtain a compound concentration dilution mother solution (100×) of 9 concentration gradients.
Dosing inhibition: 2 μL of 100× compound dilution mother solution was added to a 96-well plate, added with 100 μL of enzyme solution (IDO-1), and incubated for 10 min at room temperature. 100% DMSO was used as a negative control and NLG-919 was used as a positive control. Incubation was performed with 100 μL of substrate mixture (L-tryptophan, ascorbate, methylene blue, and catalase).
Detection: Dynamic OD data at 321 nm was detected using Spectramax.
Calculation: The inhibition rate was calculated according to the following formula.
The curve slope was fitted using the Spectramax program, and IC50 was fitted using GraphPad Prism 5.0.

Data set [1] in a line: Rat PK evaluation of the compounds. The class given is in vivo. Conditions: SD rats; for Cl_obs iv / Vz_obs iv / tz1/2 iv / tZ1/2 PO / bioavailability / AUC(0-inf): n = 3; for tZ1/2 PO: PO (intragastric) 5 mg/kg; for bioavailability / AUC(0-inf) / Tmax: Sprague-Dawley, rat, plasma; for Tmax: n = 3, median. How it is done:
Example 3: Rat PK Evaluation of the Compounds
Animal administration and sample collection: intragastric administration: Compounds 2 and 13 were dissolved in 10% DMA+10% (30% Solutol)+80% physiological saline to prepare a solution. Compound 15 was dissolved in 10% DMA+10% PEG400+80% physiological saline to prepare a solution. The SD rats were intragastrically administered at a dose of 5.0 mg/kg. The time of blood collection was: 15 min, 30 min, 1 h, 2 h, 4 h, 6 h, 8 h and 24 h.
Intravenous administration: Compounds 2 and 13 were dissolved in 10% DMA+10% (30% Solutol)+80% physiological saline to prepare a solution. Compound 15 was dissolved in 10% DMA+10% PEG400+80% physiological saline to prepare a solution. The SD rats were intravenous administered at a dose of 1 mg/kg. The time of blood collection was: 5 min, 15 min, 30 min, 1 h, 2 h, 4 h, 6 h, 8 h and 24 h.
The animals were fixed, the tail was heated in a water bath 10 min before each time point, and about 100 μL of blood was collected through the tail vein, and the blood was then placed in an anti-coagulation tube containing EDTA-K2. Blood samples were centrifuged at 8000 rpm for 6 min at 4° C. to obtain plasma samples, which must be prepared within 30 min of blood collection. The plasma samples were stored at −80° C. in a freezer before test.
Take the sample to be tested from the refrigerator (−80° C.), melted at room temperature and vortexed for 5 min. 20 μL of plasma sample was accurately pipetted into a 1.5 mL centrifuge tube; added with 200 μL of internal standard working solution at a concentration of 50 ng/mL and mixed well. The mixture was vortexed for 5 min (12000 rpm) and centrifuge for 5 min (12000 rpm). 50 μL of supernatant was accurately pipetted into 96-well plates pre-filled with 150 μL/well of water; vortexed for 5 min to mix well. The inject volume was 20 μL and LC-MS/MS was performed.
The concentration of the test sample was output by using Analyst 1.6.3 from AB. The mean, standard deviation, coefficient of variation and other parameters were calculated by Microsoft Excel (direct output from Analyst 1.6.3 is not calculated). PK parameters are calculated by using Pharsight Phoenix 6.1 software NCA (Tmax is the median).

The mark [2] stands for this setting: IV 1 mg/kg, read-out: AUCinf iv.
[3] abbreviates: PO 5 mg/kg, read-out: AUCinf PO.

Like-named read-outs stand apart in the source and are kept apart here.

Experimental findings from US11046679B2, “Indoleamine 2,3-dioxygenase inhibitor and application” (Nanjing TransThera Biosciences Co. Ltd., priority 2017, dated 2021) are described below.

T1 sequence (P14902 whole entry, species assumed): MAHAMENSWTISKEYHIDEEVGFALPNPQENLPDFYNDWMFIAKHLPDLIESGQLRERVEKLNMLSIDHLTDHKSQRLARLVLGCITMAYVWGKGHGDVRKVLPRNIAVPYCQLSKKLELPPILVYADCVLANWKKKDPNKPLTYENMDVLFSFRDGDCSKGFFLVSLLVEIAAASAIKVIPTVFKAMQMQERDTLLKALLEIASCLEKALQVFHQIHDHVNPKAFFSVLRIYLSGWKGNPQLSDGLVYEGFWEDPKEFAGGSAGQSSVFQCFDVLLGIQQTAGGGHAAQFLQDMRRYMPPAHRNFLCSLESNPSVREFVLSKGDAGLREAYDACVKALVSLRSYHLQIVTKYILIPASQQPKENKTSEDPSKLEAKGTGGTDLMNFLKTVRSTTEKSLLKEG

In the case of `O=S1(=O)CCC(Nc2nonc2C(=NO)Nc2ccc(F)c(Br)c2)C1` (single isomer, unassigned) [Compound 15-P1], the half-maximal inhibitory concentration (IC50) (usually the concentration needed to halve the response being measured) in the data set with Hela cell was 19.4 nM; at IDO1, 200 nM.

Regarding `O=S1(=O)CCC(Nc2nonc2C(=NO)Nc2ccc(F)c(Br)c2)C1` (single isomer, unassigned) [Compound 15-P2], the IC50 with Hela cell worked out at 119 nM; on IDO1 it was 240 nM.

Turning to `ON=C(Nc1ccc(F)c(Br)c1)c1nonc1NC1CCOCC1` [Compound 1, N-(3-bromo-4-fluorophenyl)-N′-hydroxy-4-((tetrahydro-2H-pyran-4-yl)amino)-1,2,5-oxadiazol-3-formamidine], the IC50 in the data set on Hela cell (Homo sapiens, HeLa, 48 h) stood at 109 nM.

Turning to `O=S1(=O)CCC(Nc2nonc2C(=NO)Nc2ccc(F)c(Br)c2)CC1` [Compound 2, N-(3-bromo-4-fluorophenyl)-4-((1,1-dioxotetrahydro-2H-thiopyran-4-yl)amino)-N′-hydroxy-1,2,5-oxadiazol-3-formamidine], the IC50 in the data set on Hela cell (Homo sapiens, HeLa, 48 h) was determined as 39.7 nM. Moreover, in data set [1] (IV 1 mg/kg), the Cl_obs iv was determined as 32.8 mL/min/kg, the Vz_obs iv was 5.02 L/kg and the tz1/2 iv stood at 1.82 h. Further, in data set [1], the “tZ1/2 PO” value stood at 3.81 h. In addition, the bioavailability (in general, the share of a dose that reaches the circulation, judged against a reference dose that is usually intravenous) in data set [1] (IV 1 mg/kg, PO 5 mg/kg) is 62.2%. The AUC(0-inf) in data set [1] (setting [2]) came to 521 ng·h/mL. Moreover, the time to peak (Tmax) – broadly, the time from dosing to the highest level – in data set [1] (PO 5 mg/kg) is 15 min. Also, the AUC(0-inf) in data set [1] (setting [3]) worked out at 1620 ng·h/mL.

As for `CS(=O)(=O)N1CCC(Nc2nonc2C(=NO)Nc2ccc(F)c(Br)c2)CC1` [Compound 3, N-(3-bromo-4-fluorophenyl)-N′-hydroxy-4-((1-(methylsulfonyl)piperidin-4-yl)amino)-1,2,5-oxadiazol-3-formamidine], the IC50 with Hela cell (Homo sapiens, HeLa, 48 h) is 71 nM.

Consider `NS(=O)(=O)N1CCC(Nc2nonc2C(=NO)Nc2ccc(F)c(Br)c2)CC1` [Compound 4], for which the IC50 in the data set on Hela cell (Homo sapiens, HeLa, 48 h) turned out to be 78.8 nM.

`ON=C(Nc1ccc(F)c(Br)c1)c1nonc1NC1CC2(COC2)C1` [Compound 12, 4-((2-oxaspiro[3.3]heptan-6-yl)amino)-N-(3-bromo-4-fluorophenyl)-N′-hydroxy-1,2,5-oxadiazol-3-carboxamidine] came in with an IC50 in the data set with Hela cell (Homo sapiens, HeLa, 48 h) of 105 nM.

For `O=S1(=O)CC2(CC(Nc3nonc3C(=NO)Nc3ccc(F)c(Br)c3)C2)C1` [Compound 13, N-(3-bromo-4-fluorophenyl)-4-((2,2-dioxo-2-thiaspiro[3.3]heptan-6-yl)amino)-N′-hydroxy-1,2,5-oxadiazol-3-formamidine], the IC50 in the data set with Hela cell (Homo sapiens, HeLa, 48 h) was 68.6 nM; against IDO1, 220 nM. This molecule also returned a Cl_obs iv in data set [1] (IV 1 mg/kg) of 53.3 mL/min/kg. In data set [1] (IV 1 mg/kg), the Vz_obs iv amounted to 9.00 L/kg. The tz1/2 iv in data set [1] (IV 1 mg/kg) came out at 2.00 h. The “tZ1/2 PO” value in data set [1] turned out to be 1.67 h. In data set [1] (IV 1 mg/kg, PO 5 mg/kg), the bioavailability was 36.9%. The AUC(0-inf) was 336 ng·h/mL in data set [1] (setting [2]) and 620 ng·h/mL in data set [1] (setting [3]). Moreover, the Tmax in data set [1] (PO 5 mg/kg) was 15 min.

For `O=S1(=O)CCC(Nc2nonc2C(=NO)Nc2ccc(F)c(Br)c2)C1` (stereo not shown) [Compound 15, N-(3-bromo-4-fluorophenyl)-4-((1,1-dioxo-tetrahydrothiophen-3-yl)amino)-N′-hydroxy-1,2,5-oxadiazol-3-formamidine], the IC50 stood at 51.6 nM in the data set with Hela cell (Homo sapiens, HeLa, 48 h) and 220 nM against IDO1. Also, in data set [1] (IV 1 mg/kg), the Cl_obs iv was found to be 45.5 mL/min/kg. Besides, the Vz_obs iv in data set [1] (IV 1 mg/kg) is 4.03 L/kg. In data set [1] (IV 1 mg/kg), this molecule returned a tz1/2 iv of 1.03 h. Further, the “tZ1/2 PO” value in data set [1] is listed as 3.40 h. This molecule came in with a bioavailability in data set [1] (IV 1 mg/kg, PO 5 mg/kg) of 28.1%. The results for the AUC(0-inf) in data set [1] (setting [2]) and in data set [1] (setting [3]) were 367 ng·h/mL and 516 ng·h/mL, respectively. The Tmax in data set [1] (PO 5 mg/kg) was found to be 60 min.

Regarding `CS(=O)(=O)N1CC2(CC(Nc3nonc3C(=NO)Nc3ccc(F)c(Br)c3)C2)C1` [Compound 16, N-(3-bromo-4-fluorophenyl)-N′-hydroxy-4-((2-(methylsulfonyl)-2-azaspiro[3.3]heptan-6-yl)amino)-1,2,5-oxadiazol-3-formamidine], the IC50 in the data set with Hela cell (Homo sapiens, HeLa, 48 h) was found to be 78.3 nM; on IDO1 it was 170 nM.

Take `O=S1(=O)CC(Nc2nonc2C(=NO)Nc2ccc(F)c(Br)c2)C1` [Compound 26, N-(3-bromo-4-fluorophenyl)-4-((1,1-dioxothietan-3-yl)amino)-N′-hydroxy-1,2,5-oxadiazol-3-formamidine]: the IC50 with Hela cell (Homo sapiens, HeLa, 48 h) came out at 76 nM.
